Entries after “also recorded” stand apart in the source; their conditions may differ. Read-outs that look alike come from different tables or passages of the source.
How the values were obtained:
NDK strain of HIV-1 = test: Giant cell assay: co-cultivation of HIV-1 chronically infected Molt 4 cells with non-infected Molt 4 cells; assay type: cell-based
Procedure: Method: A clone of the leukaemia T-cell line Molt 4, which expresses a very high level of CD4, was selected. This was infected with the highly cytopathic NDK strain of HIV-1^6 and a clone which is chronically infected with the virus but which readily replicates was selected. When these HIV-infected cells w ere co-cultivated with non-infected Molt 4 cells at a ratio of 100 non-infected:1 infected cell, very large giant cells were formed within 24 hours.
(§1) The effects of serum from healthy HIV-1 infected individuals and AIDS patients on giant cell formation was also examined. In addition the level of cytotoxicity and anti-HIV-1 activity of these substances was tested in an anti-HIV assay system which has been previously described^7. This enabled us to establish the anti-viral activity and cytotoxicity in parallel and to compare it to the effects of AZT on virus inhibition and cell division.

HIV-2 = test: Giant cell / cytopathic effect on co-cultivation of HIV-2 chronically infected cells with uninfected cells; assay type: cell-based; settings: co-cultivation in the presence of the drugs, within 24 hours
HIV-1 [1] = settings: drug-containing medium replaced with growth medium alone, one week
Procedure: Method: Culture fluid was collected from:
1. chronically infected cells grown in growth medium;
3. chronically infected cells grown in 10 μg/ml of FK506 and for 1 week after removal of compound;
Each culture was titrated at serial ten-fold dilutions. Each dilution was used to infect Molt 4 cells in duplicate. The end point was recorded after 10 days.

CD4 [2] = test: CD4 expression on non-infected cells (flow cytometry); assay type: cell-based; settings: 1 and 4 μg/ml, 3 days
Procedure: (§2) Each cell preparation was kept separately at a concentration of 1 and 4 μg/ml of each drug for 3 days. Infected and uninfected cells were suspended at a concentration of 10^6 /ml in phosphate buffered saline (PBS) containing 0.1% sodium azide. Triplicate aliquots of 100 μl were incubated separately with 20 μl Leu-3a (FITC) (Ortho (Becton Dickinson UK Ltd) or with 10 μl OKT4a (FITC) Diagnostic Systems). After 20 min at 22° C. the cells were washed twice with PBS and resuspended in 0.51% paraformaldehyde/PBS (Sigma). The preparations were fixed overnight at 4° C. and subsequently analysed by flow cytometry (FACScan, Becton Dickinson UK Ltd). The median channel fluorescence was recorded for each sample.

HIV-1 [3] = test: Anti-HIV assay system (HIV-1 replication, cytotoxicity in parallel); assay type: cell-based
Procedure: as §1

[4] = tested on: Molt 4 cells chronically infected with HIV-1; test: Growth-rate of chronically infected T-cells; assay type: cell-based
Procedure: (§3) Method: Molt 4 cells and the clone of the same cells, chronically infected with HIV-1, were seeded separately at an approximate concentration of 5×10^4 cells/ml. Five separate cultures of each of the two cell populations were seeded. […] At 24 hour intervals samples were taken for cell counting. Feeding with or without the corresponding chemical was done after the fourth day. AZT was also used in parallel.

CD4 [5] = test: CD4 expression on HIV-1 chronically infected cells (flow cytometry); assay type: cell-based; settings: 1 and 4 μg/ml, 3 days
Procedure: as §2

[6] = tested on: non-infected Molt 4 cells; test: Growth-rate of non-infected T-cells; assay type: cell-based
Procedure: as §3

## C=CC[C@@H]1/C=C(\C)C[C@H](C)C[C@H](OC)[C@H]2O[C@@](O)(C(=O)C(=O)N3CCCC[C@H]3C(=O)O[C@H](/C(C)=C/[C@@H]3CC[C@@H](O)[C@H](OC)C3)[C@H](C)[C@@H](O)CC1=O)[C@H](C)C[C@@H]2OC [FK506, 16-Allyl-1, 14-dihydroxy-12-[2-(4-hydroxy-3-methoxycyclohexyl)-1-methylvinyl]-23,25-dimethoxy-13,19,21,27-tetramethyl-11,28-dioxa-4-azatricyclo-[22,3,1,0^4,9]octacos-18-ene-2,3,10,16-tetrone]
NDK strain of HIV-1; HIV-1, co-cultivation in the presence of the drugs, within 24 hours
  delay of cytopathic effect / giant cell formation (anti-HIV-1 activity): delay of the cytopathic effect; also recorded: delay in the formation of giant cells
NDK strain of HIV-1; chronically infected cells cultured one week with drug, washed, co-cultivated without drug
  giant cell formation after drug pre-treatment of infected cells: a few small giant cells could be seen during the first 24 hours
NDK strain of HIV-1; chronically infected cells grown with drug for five days and then washed
  onset of cytopathic effects, in particular giant cell formation: inhibition of and a delay in the onset of cytopathic effects
NDK strain of HIV-1; co-cultured in the presence of 10 μg/ml, examined after 24 hours
  giant cell formation: only a few small giant cells
HIV-2
  delay of cytopathic effect / giant cell formation (anti-HIV-2 activity): delay of the cytopathic effect; also recorded: delay in the formation of giant cells
HIV-1 [1]
  production of infectious HIV-1 after drug removal: increase in the production of infectious HIV-1 to the levels which preceded the drug treatment
CD4 [2]
  CD4 expression on uninfected Molt 4 cells: expressed a high level of CD4
HIV-1 [3]; at 1 μg
  HIV-1 replication at 1 μg: only a partial decrease
HIV-1 [3]; non-toxic concentrations
  antiviral activity at non-toxic concentrations: marginal antiviral activity
HIV-1 [3]; various concentrations, FIG. 1
  inhibition of HIV-1 replication (comparison with AZT): far lower than that of AZT
[4]
  effect on growth / replication of HIV-1 chronically infected cells: inhibited the replication; also recorded: inhibit the growth of the chronically infected cells
[4]; 4 μg/ml
  cell division of chronically infected cells at 4 μg/ml: significant reduction in cell division
[4]; 10 μg/ml, after a week in culture
  number of chronically infected cells at 10 μg/ml: only a marginal increase in the number of cells
[4]; listed as FK
  effect on growth / replication of HIV-1 chronically infected cells: significantly inhibited the replication
CD4 [5]
  CD4 expression on chronically HIV-1 infected Molt 4 cells: does not seem to be affected
[6]
  cell division of uninfected cells at 4 μg/ml: did not appear to slow cell division
  growth of uninfected cells, first five days: did not affect the growth of uninfected cells
  number of uninfected cells after day five at 10 μg/ml: only a marginal increase in the number of cells
